This passage reports IC50, Activity and Drug uptake results from ChEMBL document CHEMBL6120948, “Design, Synthesis, and Biological Evaluation of Lysine-Stapled Peptide Inhibitors of p53-MDM2/MDMX Interactions with Potent Antitumor Activity In Vivo” (J Med Chem, 2024).

Data set [1] in a line: Antiproliferative activity against human U-87 MG cells expressing wild-type p53 incubated for 72 hrs by MTT assay. Type of data set: functional, cell-based, U-87MG ATCC.
The nature of data set [2]: Induction of alpha-helical conformation in phosphate buffer at pH 7 at 100 uM by CD analysis. Format: physicochemical. The settings on record: pH 7, 100 µM.
Another data set relates to MCF7. Briefly: Antiproliferative activity against human MCF7 cells expressing wild-type p53 incubated for 72 hrs by MTT assay. The settings on record: MCF7, 72 h. Type of data set: functional, cell-based.
Data set [3] in a line: Drug distribution in cytoplasm of human HCT-116 cells at 40 uM incubated for 4 hrs by Hoechst 33342/DiD dye based confocal microscopy. Format: ADME, subcellular. Particulars: hct-116, 4 h; call rule not given here.
A short description of data set [4]: Drug distribution in nucleus of human HCT-116 cells at 40 uM incubated for 4 hrs by Hoechst 33342/DiD dye based confocal microscopy. Format: ADME, subcellular. The settings on record: hct-116, 4 h.

For the compound `CC(=O)N[C@@H](CC(C)C)C(=O)N[C@H](C(=O)N[C@@H](Cc1ccccc1)C(=O)N[C@H]1CCCCNCc2ccc(cc2)CNCCCC[C@@H](C(=O)N[C@@H](CO)C(=O)N[C@@H](C)C(=O)N[C@@H](C)C(N)=O)NC(=O)[C@H](CC(C)C)NC(=O)[C@H](CCC(N)=O)NC(=O)[C@H](C)NC(=O)[C@H](Cc2c[nH]c3ccccc23)NC(=O)[C@H](Cc2ccc(O)cc2)NC(=O)[C@H](Cc2c[nH]cn2)NC1=O)[C@@H](C)O`, the IC50 (in data set [1]; in the data set with MCF7) was greater than 160 µM in each case. Further, the Activity in data set [2] is on record as 11%.

With `CC(=O)N[C@@H](CC(C)C)C(=O)N[C@H](C(=O)N[C@@H](Cc1ccccc1)C(=O)N[C@@H](CCC(=O)O)C(=O)N[C@H]1CCCCNCc2ccc(cc2)CNCCCC[C@@H](C(=O)N[C@@H](CC(C)C)C(=O)N[C@H](C(=O)N[C@@H](CO)C(=O)N[C@@H](C)C(=O)N[C@@H](C)C(N)=O)[C@@H](C)O)NC(=O)[C@H](C)NC(=O)[C@H](Cc2c[nH]c3ccccc23)NC(=O)[C@H](Cc2ccc(O)cc2)NC1=O)[C@@H](C)O`, the figures for the IC50 (in data set [1]; in the data set with MCF7) were greater than 160 µM and 6.91 µM, respectively. The Activity in data set [2] was 11%.

With `CC(=O)N[C@@H](CC(C)C)C(=O)N[C@H](C(=O)N[C@@H](Cc1ccccc1)C(=O)N[C@H]1CCCCNCc2cccc(c2)CNCCCC[C@@H](C(=O)N[C@@H](CO)C(=O)N[C@@H](C)C(=O)N[C@@H](C)C(N)=O)NC(=O)[C@H](CC(C)C)NC(=O)[C@H](CCC(N)=O)NC(=O)[C@H](C)NC(=O)[C@H](Cc2c[nH]c3ccccc23)NC(=O)[C@H](Cc2ccc(O)cc2)NC(=O)[C@H](Cc2c[nH]cn2)NC1=O)[C@@H](C)O`, the IC50 in data set [1] is 52.9 µM; with MCF7, greater than 160 µM. For the same compound, in data set [2], the Activity is reported as 11%.

Turning to `CSCC[C@H](NC(=O)[C@H](CC(C)C)NC(=O)[C@H](CCC(N)=O)NC(=O)[C@@H]1CCCCNCc2ccccc2CNCCCC[C@H](NC(=O)[C@H](Cc2ccccc2)NC(=O)[C@@H](NC(=O)[C@H](CC(C)C)NC(C)=O)[C@@H](C)O)C(=O)N[C@@H](CCC(=O)O)C(=O)N[C@@H](Cc2ccc(O)cc2)C(=O)N[C@@H](Cc2c[nH]c3ccccc23)C(=O)N1)C(=O)N[C@@H](CCC(N)=O)C(=O)N[C@@H](C)C(=O)N[C@@H](C)C(N)=O`, the concentration for half-maximal inhibition (IC50) in data set [1] is 105 µM; with MCF7, greater than 160 µM. The same compound showed an Activity in data set [2] of 11%.

With `CC(=O)N[C@@H](CC(C)C)C(=O)N[C@H](C(=O)N[C@@H](Cc1ccccc1)C(=O)N[C@H]1CCCCNCc2ccccc2CNCCCC[C@@H](C(=O)N[C@@H](CO)C(=O)N[C@@H](C)C(=O)N[C@@H](C)C(N)=O)NC(=O)[C@H](CC(C)C)NC(=O)[C@H](CCC(N)=O)NC(=O)[C@H](C)NC(=O)[C@H](Cc2c[nH]c3ccccc23)NC(=O)[C@H](Cc2ccc(O)cc2)NC(=O)[C@H](Cc2c[nH]cn2)NC1=O)[C@@H](C)O`, the IC50 (in data set [1]; in the data set on MCF7) was greater than 160 µM each time. This compound also returned an Activity in data set [2] of 11%.

In the case of `CC(C)C[C@H](NC(=O)CCNC(=O)c1ccc2c(c1)C(=O)OC21c2ccc(O)cc2Oc2cc(O)ccc21)C(=O)N[C@H](C(=O)N[C@@H](Cc1ccccc1)C(=O)N[C@H]1CCCCNCc2cccc(c2)CNCCCC[C@@H](C(=O)N[C@@H](CCC(N)=O)C(=O)N[C@@H](CC(C)C)C(=O)N[C@H](C(=O)N[C@@H](CO)C(=O)N[C@@H](C)C(=O)N[C@@H](C)C(N)=O)[C@@H](C)O)NC(=O)[C@H](Cc2c[nH]c3ccccc23)NC(=O)[C@H](Cc2ccc(O)cc2)NC(=O)[C@H](Cc2c[nH]cn2)NC1=O)[C@@H](C)O`, the Drug uptake entry in data set [3] and in data set [4] was “Active” each time.

For the compound `CC(=O)N[C@@H](CC(C)C)C(=O)N[C@H](C(=O)N[C@@H](Cc1ccccc1)C(=O)N[C@H]1CCCCNCc2ccccc2CNCCCC[C@@H](C(=O)N[C@@H](CCC(N)=O)C(=O)N[C@@H](CC(C)C)C(=O)N[C@H](C(=O)N[C@@H](CO)C(=O)N[C@@H](C)C(=O)N[C@@H](C)C(N)=O)[C@@H](C)O)NC(=O)[C@H](Cc2c[nH]c3ccccc23)NC(=O)[C@H](Cc2ccc(O)cc2)NC(=O)[C@H](Cc2c[nH]cn2)NC1=O)[C@@H](C)O`, the half-maximal inhibitory concentration (IC50) is greater than 160 µM in data set [1] and 11.3 µM in the data set with MCF7. Further, in data set [2], the Activity is 11%.

Consider `CC(=O)N[C@@H](CC(C)C)C(=O)N[C@H](C(=O)N[C@@H](Cc1ccccc1)C(=O)N[C@@H](CCC(=O)O)C(=O)N[C@H]1CCCCNCc2ccccc2CNCCCC[C@@H](C(=O)N[C@@H](CC(C)C)C(=O)N[C@H](C(=O)N[C@@H](CO)C(=O)N[C@@H](C)C(=O)N[C@@H](C)C(N)=O)[C@@H](C)O)NC(=O)[C@H](C)NC(=O)[C@H](Cc2c[nH]c3ccccc23)NC(=O)[C@H](Cc2ccc(O)cc2)NC1=O)[C@@H](C)O`, for which the IC50 in data set [1] was greater than 160 µM; in the data set on MCF7, 145 µM. For the same compound, the Activity in data set [2] stood at 11%.

On to `CC(=O)N[C@@H](CC(C)C)C(=O)N[C@H](C(=O)N[C@@H](Cc1ccccc1)C(=O)N[C@H]1CCCCNCC#CCNCCCC[C@@H](C(=O)N[C@@H](CO)C(=O)N[C@@H](C)C(=O)N[C@@H](C)C(N)=O)NC(=O)[C@H](CC(C)C)NC(=O)[C@H](CCC(N)=O)NC(=O)[C@H](C)NC(=O)[C@H](Cc2c[nH]c3ccccc23)NC(=O)[C@H](Cc2ccc(O)cc2)NC(=O)[C@H](Cc2c[nH]cn2)NC1=O)[C@@H](C)O`, for which the IC50 (in data set [1]; in the data set with MCF7) was greater than 160 µM in each case. The compound also displayed an Activity in data set [2] of 11%.

In the case of `CC(=O)N[C@@H](CC(C)C)C(=O)N[C@H](C(=O)N[C@@H](Cc1ccccc1)C(=O)N[C@@H](CCC(=O)O)C(=O)N[C@H]1CCCCNCc2cccc(c2)CNCCCC[C@@H](C(=O)N[C@@H](CC(C)C)C(=O)N[C@H](C(=O)N[C@@H](CO)C(=O)N[C@@H](C)C(=O)N[C@@H](C)C(N)=O)[C@@H](C)O)NC(=O)[C@H](C)NC(=O)[C@H](Cc2c[nH]c3ccccc23)NC(=O)[C@H](Cc2ccc(O)cc2)NC1=O)[C@@H](C)O`, the results for the 50% inhibitory concentration (IC50) (in data set [1]; in the data set with MCF7) were 138 µM and greater than 160 µM, respectively. The compound further gave an Activity in data set [2] of 11%.

In the case of `CSCC[C@H](NC(=O)[C@H](CC(C)C)NC(=O)[C@H](CCC(N)=O)NC(=O)[C@@H]1CCCCNCc2cccc(c2)CNCCCC[C@H](NC(=O)[C@H](Cc2ccccc2)NC(=O)[C@@H](NC(=O)[C@H](CC(C)C)NC(C)=O)[C@@H](C)O)C(=O)N[C@@H](CCC(=O)O)C(=O)N[C@@H](Cc2ccc(O)cc2)C(=O)N[C@@H](Cc2c[nH]c3ccccc23)C(=O)N1)C(=O)N[C@@H](CCC(N)=O)C(=O)N[C@@H](C)C(=O)N[C@@H](C)C(N)=O`, the concentration for half-maximal inhibition (IC50) in data set [1] was 21.9 µM; in the data set on MCF7 it was greater than 160 µM. In addition, the Activity in data set [2] worked out at 11%.

On to `CC(=O)N[C@@H](CC(C)C)C(=O)N[C@H](C(=O)N[C@@H](Cc1ccccc1)C(=O)N[C@H]1CCCCNCC#CCNCCCC[C@@H](C(=O)N[C@@H](CCC(N)=O)C(=O)N[C@@H](CC(C)C)C(=O)N[C@H](C(=O)N[C@@H](CO)C(=O)N[C@@H](C)C(=O)N[C@@H](C)C(N)=O)[C@@H](C)O)NC(=O)[C@H](Cc2c[nH]c3ccccc23)NC(=O)[C@H](Cc2ccc(O)cc2)NC(=O)[C@H](Cc2c[nH]cn2)NC1=O)[C@@H](C)O`, for which the half-inhibitory concentration (IC50) (in data set [1]; in the data set on MCF7) was greater than 160 µM in each case. In data set [2], this compound displayed an Activity of 11%.

Regarding `CC(=O)N[C@@H](CC(C)C)C(=O)N[C@H](C(=O)N[C@@H](Cc1ccccc1)C(=O)N[C@@H](CCC(=O)O)C(=O)N[C@H]1CCCCNCC#CCNCCCC[C@@H](C(=O)N[C@@H](CC(C)C)C(=O)N[C@H](C(=O)N[C@@H](CO)C(=O)N[C@@H](C)C(=O)N[C@@H](C)C(N)=O)[C@@H](C)O)NC(=O)[C@H](C)NC(=O)[C@H](Cc2c[nH]c3ccccc23)NC(=O)[C@H](Cc2ccc(O)cc2)NC1=O)[C@@H](C)O`, the IC50 in data set [1] was greater than 160 µM; in the data set with MCF7 it was 19.9 µM. Also, the Activity in data set [2] was determined as 11%.

In the case of `CC(=O)N[C@@H](CC(C)C)C(=O)N[C@H](C(=O)N[C@@H](Cc1ccccc1)C(=O)N[C@H]1CCCCNCc2ccc(cc2)CNCCCC[C@@H](C(=O)N[C@@H](CCC(N)=O)C(=O)N[C@@H](CC(C)C)C(=O)N[C@H](C(=O)N[C@@H](CO)C(=O)N[C@@H](C)C(=O)N[C@@H](C)C(N)=O)[C@@H](C)O)NC(=O)[C@H](Cc2c[nH]c3ccccc23)NC(=O)[C@H](Cc2ccc(O)cc2)NC(=O)[C@H](Cc2c[nH]cn2)NC1=O)[C@@H](C)O`, the IC50 (in data set [1]; with MCF7) was greater than 160 µM in each case. This compound also showed an Activity in data set [2] of 11%.

On to `CSCC[C@H](NC(=O)[C@H](CC(C)C)NC(=O)[C@H](CCC(N)=O)NC(=O)[C@@H]1CCCCNCC#CCNCCCC[C@H](NC(=O)[C@H](Cc2ccccc2)NC(=O)[C@@H](NC(=O)[C@H](CC(C)C)NC(C)=O)[C@@H](C)O)C(=O)N[C@@H](CCC(=O)O)C(=O)N[C@@H](Cc2ccc(O)cc2)C(=O)N[C@@H](Cc2c[nH]c3ccccc23)C(=O)N1)C(=O)N[C@@H](CCC(N)=O)C(=O)N[C@@H](C)C(=O)N[C@@H](C)C(N)=O`, for which the IC50 is greater than 160 µM in data set [1] and 112 µM with MCF7. The Activity in data set [2] turned out to be 11%.

As to `CSCC[C@H](NC(=O)[C@H](CC(C)C)NC(=O)[C@H](CCC(N)=O)NC(=O)[C@@H]1CCCCNCc2ccc(cc2)CNCCCC[C@H](NC(=O)[C@H](Cc2ccccc2)NC(=O)[C@@H](NC(=O)[C@H](CC(C)C)NC(=O)CCNC(=O)c2ccc3c(c2)C(=O)OC32c3ccc(O)cc3Oc3cc(O)ccc32)[C@@H](C)O)C(=O)N[C@@H](CCC(=O)O)C(=O)N[C@@H](Cc2ccc(O)cc2)C(=O)N[C@@H](Cc2c[nH]c3ccccc23)C(=O)N1)C(=O)N[C@@H](CCC(N)=O)C(=O)N[C@@H](C)C(=O)N[C@@H](C)C(N)=O`, the Drug uptake result in data set [3] is given as “Not_active”.

As for Ac-LTFEHYWAQLTS-NH2, the Activity in data set [2] is on record as 11%.
